Laboratory results as given in ChEMBL document CHEMBL3885861, “Open TG-GATES”.

Species on record: Rattus norvegicus
Assay: Open TG-GATES - Regimen: Single
Assay type: toxicity, organism-based, Sprague-Dawley
Parameters: regimen Single, gender Male, age 6 weeks
Conditions: in vivo, iv, route intravenous injection; for MCV / Mono / Neu / PT / Plat / RBC / Ret / WBC / APTT / Bas / Eos / Fbg / Hb / Ht / Lym / MCH / MCHC: tissue Blood; for KIDNEY_L / KIDNEY_R / KIDNEY_TOTAL: tissue Kidney; for LIVER: tissue Liver; for A/G / ALP / ALT / AST / BUN / CRE / Ca / Cl / DBIL / GLC / IP / K / LDH / Na / PL / RALB / TBIL / TC / TG / TP / gamma-GTP: tissue Plasma
[1] = 0 mg/kg, 24 h, dose level Control

C[C@@H]1[C@H](O)[C@@H](C)/C=C/C=C/C=C/C=C/C=C/C=C/C=C/[C@H](O[C@@H]2O[C@H](C)[C@@H](O)[C@H](N)[C@@H]2O)C[C@@H]2O[C@](O)(C[C@@H](O)C[C@@H](O)[C@H](O)CC[C@@H](O)C[C@@H](O)CC(=O)O[C@H]1C)C[C@H](O)[C@H]2C(=O)O [AMPHOTERICIN B]
MCV [1]: 62.4 fL | Mono [1]: 2.2% | Neu [1]: 17% | PT [1]: 12.3 s | Plat [1]: 145.5 x10_4/uL | RBC [1]: 621.8 x10_4/ul | Ret [1]: 7.1% | WBC [1]: 93.8 x10_2/uL | KIDNEY_L [1]: 1 g | KIDNEY_R [1]: 1 g | KIDNEY_TOTAL [1]: 1.9 g | LIVER [1]: 10.4 g | A/G [1]: 0.9 | ALP [1]: 1818.6 IU/L | ALT [1]: 37.6 IU/L | AST [1]: 66.8 IU/L | BUN [1]: 15.2 mg/dL | CRE [1]: 0.2 mg/dL | Ca [1]: 11 mg/dL | Cl [1]: 105.6 meq/L | DBIL [1]: 0.02 mg/dL | GLC [1]: 169 mg/dL | IP [1]: 7.7 mg/dL | K [1]: 3.8 meq/L | LDH [1]: 53.2 IU/L | Na [1]: 143.4 meq/L | PL [1]: 133.4 mg/dL | RALB [1]: 2.6 g/dL | TBIL [1]: 0.054 mg/dL | TC [1]: 74.2 mg/dL | TG [1]: 96.8 mg/dL | TP [1]: 5.8 g/dL | gamma-GTP [1]: 1.6 IU/L | TERMINAL_BW (1 mg/kg, 3 h, dose level Low): 214.2 g | APTT (1 mg/kg, 3 h, dose level Low): 16.8 s | Bas (1 mg/kg, 3 h, dose level Low): 0% | Eos (1 mg/kg, 3 h, dose level Low): 0.6% | Fbg (1 mg/kg, 3 h, dose level Low): 257 mg/dL | Hb (1 mg/kg, 3 h, dose level Low): 13.6 g/dL | Ht (1 mg/kg, 3 h, dose level Low): 39.9% | Lym (1 mg/kg, 3 h, dose level Low): 74.6% | MCH (1 mg/kg, 3 h, dose level Low): 21.2 pg | MCHC (1 mg/kg, 3 h, dose level Low): 34.1% | MCV (1 mg/kg, 3 h, dose level Low): 62 fL | Mono (1 mg/kg, 3 h, dose level Low): 3.2% | Neu (1 mg/kg, 3 h, dose level Low): 20.6% | PT (1 mg/kg, 3 h, dose level Low): 13 s | Plat (1 mg/kg, 3 h, dose level Low): 139.1 x10_4/uL | RBC (1 mg/kg, 3 h, dose level Low): 644.6 x10_4/ul | Ret (1 mg/kg, 3 h, dose level Low): 7.7% | WBC (1 mg/kg, 3 h, dose level Low): 97.1 x10_2/uL | KIDNEY_L (1 mg/kg, 3 h, dose level Low): 1 g | KIDNEY_R (1 mg/kg, 3 h, dose level Low): 1 g | KIDNEY_TOTAL (1 mg/kg, 3 h, dose level Low): 1.9 g | LIVER (1 mg/kg, 3 h, dose level Low): 9.8 g | A/G (1 mg/kg, 3 h, dose level Low): 0.9 | ALP (1 mg/kg, 3 h, dose level Low): 1691 IU/L | ALT (1 mg/kg, 3 h, dose level Low): 40 IU/L | AST (1 mg/kg, 3 h, dose level Low): 85.4 IU/L | BUN (1 mg/kg, 3 h, dose level Low): 18.8 mg/dL | CRE (1 mg/kg, 3 h, dose level Low): 0.2 mg/dL | Ca (1 mg/kg, 3 h, dose level Low): 10.9 mg/dL | Cl (1 mg/kg, 3 h, dose level Low): 106.6 meq/L | DBIL (1 mg/kg, 3 h, dose level Low): 0.018 mg/dL | GLC (1 mg/kg, 3 h, dose level Low): 173.4 mg/dL | IP (1 mg/kg, 3 h, dose level Low): 8.6 mg/dL | K (1 mg/kg, 3 h, dose level Low): 3.9 meq/L | LDH (1 mg/kg, 3 h, dose level Low): 58.8 IU/L | Na (1 mg/kg, 3 h, dose level Low): 143.2 meq/L | PL (1 mg/kg, 3 h, dose level Low): 129.4 mg/dL | RALB (1 mg/kg, 3 h, dose level Low): 2.6 g/dL | TBIL (1 mg/kg, 3 h, dose level Low): 0.058 mg/dL | TC (1 mg/kg, 3 h, dose level Low): 74 mg/dL | TG (1 mg/kg, 3 h, dose level Low): 53.8 mg/dL | TP (1 mg/kg, 3 h, dose level Low): 5.6 g/dL | gamma-GTP (1 mg/kg, 3 h, dose level Low): 2 IU/L | TERMINAL_BW (1 mg/kg, 6 h, dose level Low): 208.2 g | APTT (1 mg/kg, 6 h, dose level Low): 15.4 s | Bas (1 mg/kg, 6 h, dose level Low): 0% | Eos (1 mg/kg, 6 h, dose level Low): 0.8% | Fbg (1 mg/kg, 6 h, dose level Low): 286.6 mg/dL | Hb (1 mg/kg, 6 h, dose level Low): 13.3 g/dL | Ht (1 mg/kg, 6 h, dose level Low): 39.5% | Lym (1 mg/kg, 6 h, dose level Low): 68.6% | MCH (1 mg/kg, 6 h, dose level Low): 20.9 pg | MCHC (1 mg/kg, 6 h, dose level Low): 33.7% | MCV (1 mg/kg, 6 h, dose level Low): 62 fL | Mono (1 mg/kg, 6 h, dose level Low): 2.8% | Neu (1 mg/kg, 6 h, dose level Low): 27% | PT (1 mg/kg, 6 h, dose level Low): 12.8 s | Plat (1 mg/kg, 6 h, dose level Low): 135.3 x10_4/uL | RBC (1 mg/kg, 6 h, dose level Low): 636.4 x10_4/ul | Ret (1 mg/kg, 6 h, dose level Low): 7.9% | WBC (1 mg/kg, 6 h, dose level Low): 98.4 x10_2/uL | KIDNEY_L (1 mg/kg, 6 h, dose level Low): 1 g | KIDNEY_R (1 mg/kg, 6 h, dose level Low): 0.9 g | KIDNEY_TOTAL (1 mg/kg, 6 h, dose level Low): 1.9 g | LIVER (1 mg/kg, 6 h, dose level Low): 9 g | A/G (1 mg/kg, 6 h, dose level Low): 0.8 | ALP (1 mg/kg, 6 h, dose level Low): 1534.4 IU/L | ALT (1 mg/kg, 6 h, dose level Low): 38.2 IU/L | AST (1 mg/kg, 6 h, dose level Low): 70.8 IU/L | BUN (1 mg/kg, 6 h, dose level Low): 16.4 mg/dL | CRE (1 mg/kg, 6 h, dose level Low): 0.1 mg/dL | Ca (1 mg/kg, 6 h, dose level Low): 10.7 mg/dL | Cl (1 mg/kg, 6 h, dose level Low): 106.6 meq/L | DBIL (1 mg/kg, 6 h, dose level Low): 0.016 mg/dL | GLC (1 mg/kg, 6 h, dose level Low): 180 mg/dL | IP (1 mg/kg, 6 h, dose level Low): 10.1 mg/dL | K (1 mg/kg, 6 h, dose level Low): 3.4 meq/L | LDH (1 mg/kg, 6 h, dose level Low): 57.2 IU/L | Na (1 mg/kg, 6 h, dose level Low): 144.6 meq/L | PL (1 mg/kg, 6 h, dose level Low): 135 mg/dL | RALB (1 mg/kg, 6 h, dose level Low): 2.6 g/dL | TBIL (1 mg/kg, 6 h, dose level Low): 0.062 mg/dL | TC (1 mg/kg, 6 h, dose level Low): 83.8 mg/dL | TG (1 mg/kg, 6 h, dose level Low): 41.4 mg/dL | TP (1 mg/kg, 6 h, dose level Low): 5.7 g/dL | gamma-GTP (1 mg/kg, 6 h, dose level Low): 1.4 IU/L | TERMINAL_BW (1 mg/kg, 9 h, dose level Low): 208.6 g | APTT (1 mg/kg, 9 h, dose level Low): 16.5 s | Bas (1 mg/kg, 9 h, dose level Low): 0% | Eos (1 mg/kg, 9 h, dose level Low): 1% | Fbg (1 mg/kg, 9 h, dose level Low): 296.2 mg/dL | Hb (1 mg/kg, 9 h, dose level Low): 13.2 g/dL | Ht (1 mg/kg, 9 h, dose level Low): 38.5% | Lym (1 mg/kg, 9 h, dose level Low): 71.4% | MCH (1 mg/kg, 9 h, dose level Low): 20.9 pg | MCHC (1 mg/kg, 9 h, dose level Low): 34.2% | MCV (1 mg/kg, 9 h, dose level Low): 61 fL | Mono (1 mg/kg, 9 h, dose level Low): 1.8% | Neu (1 mg/kg, 9 h, dose level Low): 25.4% | PT (1 mg/kg, 9 h, dose level Low): 12.9 s | Plat (1 mg/kg, 9 h, dose level Low): 132.4 x10_4/uL | RBC (1 mg/kg, 9 h, dose level Low): 631.6 x10_4/ul | Ret (1 mg/kg, 9 h, dose level Low): 7.9% | WBC (1 mg/kg, 9 h, dose level Low): 97.1 x10_2/uL | KIDNEY_L (1 mg/kg, 9 h, dose level Low): 0.9 g | KIDNEY_R (1 mg/kg, 9 h, dose level Low): 0.9 g | KIDNEY_TOTAL (1 mg/kg, 9 h, dose level Low): 1.9 g
